Results on one molecule are retold here after paper PMC11788587, “Validating Low‐Dose Iohexol as a Marker for Glomerular Filtration Rate by In Vitro and In Vivo Studies” (Clinical and Translational Science, 2025).

Data set [1] relates to hOAT1, hOAT3, hOCT1, hOCT2, hMATE1, or hMATE2K. Nature of the data set: Substrate assessments, summary across transporters. It is filed as in vitro ADME, human. The text has this:
We characterized the inhibitory potential of iohexol on major drug transporters recommended by regulatory agencies, which were previously assessed in a clinical transporter phenotyping cocktail study. These transporters include hOAT1, hOAT3, hOCT1, hOCT2, hMATE1, hMATE2K, human organic anion transporter polypeptides (hOATP)1B1, hOATP1B3, and human multidrug resistance protein (hMDR)1. Additionally, we investigated whether iohexol is a substrate for any of the renal transporters among these, including hOAT1/3, hOCT1/2, and hMATE1/2K. Cell‐based uptake assays were used to assess the activities of hOAT1/3, hOCT1/2, hMATE1/2K, and hOATP1B1/1B3. […]
R version 4.2.1 (R Foundation for Statistical Computing, Vienna, Austria) was used for statistical evaluations and data visualization. The data analysis approach for the in vitro study was detailed by Hsin CH et al..^1 In brief, for transport assays, the initial uptake rate was calculated by normalizing the substrate concentration to both the protein concentration and the incubation time for each dish or well. The transporter-mediated uptake rate (net uptake) was determined by performing an element-wise subtraction of uptake rates from different conditions. […] Net uptake rates were determined by subtracting the uptake rate of the control cells or vesicles from that of the transporter-expressing cells or vesicles for each pair. […]

The next data set deals with T1, hOAT1 (Homo sapiens, UniProt Q4U2R8).
T1 construct: expressed in transfected cells; host or cells: HEK-293 (293) cells, pEBTetD plasmid, doxycycline-induced
T1 sequence (Q4U2R8 1-563): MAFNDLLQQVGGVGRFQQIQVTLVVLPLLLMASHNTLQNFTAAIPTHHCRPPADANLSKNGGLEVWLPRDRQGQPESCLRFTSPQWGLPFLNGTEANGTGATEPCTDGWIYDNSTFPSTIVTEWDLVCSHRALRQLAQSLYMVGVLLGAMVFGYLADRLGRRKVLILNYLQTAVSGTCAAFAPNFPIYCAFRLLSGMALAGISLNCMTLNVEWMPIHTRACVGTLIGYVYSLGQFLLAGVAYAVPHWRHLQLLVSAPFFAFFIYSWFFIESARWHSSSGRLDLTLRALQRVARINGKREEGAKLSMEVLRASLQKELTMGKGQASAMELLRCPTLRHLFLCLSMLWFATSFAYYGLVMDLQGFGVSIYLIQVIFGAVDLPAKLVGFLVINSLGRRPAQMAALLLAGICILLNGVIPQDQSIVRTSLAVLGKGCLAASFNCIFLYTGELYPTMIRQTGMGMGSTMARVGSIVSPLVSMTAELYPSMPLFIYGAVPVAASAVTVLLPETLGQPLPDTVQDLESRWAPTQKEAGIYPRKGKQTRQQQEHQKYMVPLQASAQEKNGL
As to the kind of experiment: Inhibition of hOAT1-mediated PAH uptake, stably transfected 293 cells. It is filed as cell-based. Conditions: substrate 10 µM PAH, median (95% CI). The text has this: We characterized the inhibitory potential of iohexol on major drug transporters recommended by regulatory agencies, which were previously assessed in a clinical transporter phenotyping cocktail study. These transporters include hOAT1, hOAT3, hOCT1, hOCT2, hMATE1, hMATE2K, human organic anion transporter polypeptides (hOATP)1B1, hOATP1B3, and human multidrug resistance protein (hMDR)1. Additionally, we investigated whether iohexol is a substrate for any of the renal transporters among these, including hOAT1/3, hOCT1/2, and hMATE1/2K. Cell‐based uptake assays were used to assess the activities of hOAT1/3, hOCT1/2, hMATE1/2K, and hOATP1B1/1B3. Inside‐out membrane vesicle uptake assays were used to evaluate the activity of hMDR1.
To determine the maximal inhibitory potential of iohexol, intracellular accumulation of a standard substrate was measured with and without the clinically relevant highest concentrations of iohexol. Control inhibitors were tested in each experiment.
In all subsequent in vitro studies, control experiments were conducted to validate the results. These included positive controls for substrates and inhibitors, as well as cells either without transporter expression or transfected with an empty vector, and control vesicles. Each condition, including cells or vesicles with the transporter and their respective controls, was analyzed in at least three replicates. For detailed information on materials, methods, and data analysis techniques used, refer to the Supporting Information. […]
R version 4.2.1 (R Foundation for Statistical Computing, Vienna, Austria) was used for statistical evaluations and data visualization. The data analysis approach for the in vitro study was detailed by Hsin CH et al..^1 In brief, for transport assays, the initial uptake rate was calculated by normalizing the substrate concentration to both the protein concentration and the incubation time for each dish or well. The transporter-mediated uptake rate (net uptake) was determined by performing an element-wise subtraction of uptake rates from different conditions. […]

Take `CC(=O)N(CC(O)CO)c1c(I)c(C(=O)NCC(O)CO)c(I)c(C(=O)NCC(O)CO)c1I` (centres unmarked) [iohexol]: the “Increase in iohexol accumulation vs control cells, range of median values across transporters” value in data set [1] (10 μM iohexol for 10 and 30 min) is recorded as −0.67 to 1.5 pmol/mg protein. The “Substrate of the transporters (conclusion)” value in data set [1] (in vitro) is “neither a substrate nor a significant inhibitor”. Also, at hOAT1 (20 mM iohexol), the “Inhibitory effect (% reduction of specific activity)” value was “no notable inhibitory effects”. Moreover, the inhibition at 1000 µM on hOAT1 (HEK293, 1 mM iohexol, read-out: Inhibitory effect (% reduction of specific activity)) was -0.45%. In addition, the inhibition at 20000 µM on hOAT1 (HEK293, 20 mM iohexol, read-out: Inhibitory effect (% reduction of specific activity)) was 3.1%.
